Measured values as given in patent US20080069901A1, “Therapeutic Agent for Metastatic Cancer and Cancer Metastasis Inhibitor” (TMRC Co. , Ltd., priority 2004, published 2008).

Assays:
[1] = tested on: murine colorectal cancer Colon 26; test: Liver metastasis model of murine colorectal cancer Colon 26 (spleen transplantation), survival; assay type: in vivo, CDF1 mice
Source text: When cancer cells are transplanted into the spleen of mice, metastatic cancer is selectively formed in the liver. Use of this model enables various therapeutic experiments in order to control metastasis to liver (refer to MORIKAWA, Kiyoshi, Nude Mouse Spleen Transplantation Method as Human Cancer Liver Metastasis Model, “Oncologia”: 1989, 22(2): p. 100-102, and L. Kopper et al.: Experimental Model for Liver Metastasis Formation Using Lewis Lung Tumor.: “Journal of Cancer Research Clinical Oncology”: 1982, 103: p31-38).
Specifically, a liver metastasis model of murine colorectal cancer Colon 26 was established using 6-week old CDF1 mice. The therapeutic and inhibitory activities were assayed using, as an index, the ratio (life prolongation rate; T/C percentage) of the survival time of a drug-administered group (10 mice per group) to the survival time of a non-drug-administered (control) group (10 mice per group). In the drug-administered group, cisplatin as a platinum complex was dissolved in physiological saline and was orally administered. In the control group, physiological saline alone was orally administered.

Melanoma B16 cells = test: Animal model of metastasis to bone, Melanoma B16 cells transplanted to the left ventricle; assay type: in vivo, C57BL/6 mice; details: oral 1 mg per kg per day
Description: The therapeutic effect and inhibitory effect against metastasis in an animal model of metastasis to bone were evaluated in the following manner. Initially, a test animal was anaesthetized with thiamylal, the precordia was disinfected with iodine and 70% ethanol and was incised to 1 cm along with the midline to expose the ribs. The second interspace of the left sternum was needled to a depth of 2 mm with a needle of a tuberculin syringe 30 G. After observing that fresh blood came up into the syringe, cultured tumor cells in an amount of 10^4 cells in 0.1 mL were injected over one minute or longer. At the time when the animal (mouse) was weakened or paralyzed, the mouse was killed with ether anesthesia, and evaluation was conducted (refer to F. Arguello et al.: A Murine Model of Experimental Metastasis to Bone and Bone Marrow. “Cancer Research”: 1988, 48: 6876-6881).
Melanoma B16 cells (10^4/0.1 mL) were transplanted to the left ventricle of 8-week old female C57BL/6 mice (12 mice per group). […] At the time three weeks after the transplantation when the mice were weakened or paralyzed, the mice were killed under inhalation with ether, the target organs were fixed with 10% formalin, and evaluation of tumor metastasis was conducted.

[2] = tested on: Human multiple myeloma U266 cells; test: Bone metastasis model of human multiple myeloma U266 in NOG mice, serum hIgE level; assay type: in vivo, NOD/SCID/γc^null (NOG) mice
Description: The therapeutic and inhibitory effects of combination use with a bisphosphonate against metastasis in an animal model of metastasis to bone were evaluated in the following manner. Human multiple myeloma U266 cells in an amount of 2×10^6 in 0.2 ml were transplanted to NOD/SCID/γc^null (NOG) mice through their tail vein (10 mice per group). […] 21 days after the transplantation, Aredia containing pamidronate, one of bisphosphonates, as an active ingredient was orally administered at a dose of 1 mg per kg per day for consecutive 8 days (Aredia group). […] 29 days after the tumor transplantation, the human IgE (hIgE) level in the serum was measured, and the therapeutic effect against metastasis to bone was determined (refer to Y. Miyakawa et al.: Establishment of a new model of human multiple myeloma using NOD/SCID/γc^null (NOG) mice. “Biochemical and Biophysical Research Communication”: 2004, 313: 258-262).

[3] = tested on: Human large cell lung carcinoma LC-1 cells; test: Tumor growth delay in nude mice with human large cell lung carcinoma LC-1; assay type: in vivo, BALB/cA-nu/nu mice; details: for Tumor Growth Delay Percentage: total 20 mg per kg
Description: As an index of the effect, the tumor growth delay percentage (%) was determined by calculation according to the following equation: Tumor Growth Delay Percentage(%)=(A−B)/B×100 (1)
wherein “A” represents the number of days required for the tumor to increase in its volume as much as 8 times in each cisplatin-administered group; and “B” represents the number of days required for the tumor to increase in its volume as much as 8 times in the control group. In addition, blood urea nitrogen (BUN) was measured as an index of nephrotoxicity.

[4] = three weeks after transplantation, control 9/10

## N.N.[Cl][Pt][Cl] [Cisplatin, cisplatin]
[1]; oral 1 mg per kg per day
  Life prolongation effect against liver metastasis (in words): remarkable life prolongation effect
[1]; oral 1 mg per kg per day in physiological saline, started one day after transplantation, control 16.0
  Median Survival Time: 31.0 days
[1]; survival time of drug-administered group to control group, oral 1 mg per kg per day
  T/C (life prolongation rate): 194%
Melanoma B16 cells
  Inhibition of metastasis to bone (in words): significantly inhibits metastasis to bone
Melanoma B16 cells; three weeks after transplantation, control 0/10
  Number of mice where metastasis was observed: Vertebral Column, Cervical Region: 0/10
Melanoma B16 cells; three weeks after transplantation, control 4/10
  Number of mice where metastasis was observed: Pectoral Region, Breast Bone: 2/10
Melanoma B16 cells; three weeks after transplantation, control 6/10
  Number of mice where metastasis was observed: Vertebral Column, Sacral Spine: 1/10
Melanoma B16 cells; three weeks after transplantation, control 7/10
  Number of mice where metastasis was observed: Pectoral Region, Blade Bone: 5/10
Melanoma B16 cells; three weeks after transplantation, control 8/10
  Number of mice where metastasis was observed: Vertebral Column, Lumbar Region: 4/10
Melanoma B16 cells; [4]
  Number of mice where metastasis was observed: Pectoral Region, Rib: 5/10
  Number of mice where metastasis was observed: Vertebral Column, Pectoral Region: 6/10
[2]; 29 days after transplantation, oral 1 mg per kg per day each, cisplatin day 1-28, Aredia day 21-28, control 351.7 ng/mL
  hIgE Level in serum: 210.5 ng/mL
[2]; oral 1 mg per kg per day
  Effect on increase in hIgE level due to metastasis to bone (in words): inhibits the increase in hIgE level
[3]; intermittent intravenous administration, 6.67 mg per kg three times every 7 days
  Tumor Growth Delay Percentage: 265%
[3]; low-dose daily administration
  Growth of cancer (in words): inhibits growth of cancer
[3]; low-dose daily intravenous administration, 1.33 mg per kg for 5 consecutive days x 3 courses
  Tumor Growth Delay Percentage: >293%
